Results published in patent publication US6228868A, “Oxazoline antiproliferative agents” (Abbott Laboratories, priority 1999, dated 2001).

Columns and labels:
HCT-15 cells = assay: 48-hour cellular proliferation assay, sulforhodamine stain (human colon adenocarcinoma, MDR positive); type: cell-based; settings: Homo sapiens
Protocol: (§1) Compounds of this invention were tested in a 48-hour cellular proliferation assay that uses human colon adenocarcinoma, MDR positive (HCT-15) cells, and human lung large cell carcinoma, MDR negative (NCI-H460) cells, in the 96-well microtitre format described in Skehan P., et al. New Colorimetric Cytotoxicity Assay for Anticancer Drug Screening. 1990, J. Natl. Cancer Inst. 82:1107-1112, hereby incorporated by reference. Briefly, the wells of a microtitre plate were charged sequentially with cultured cells and compounds of the invention (1.0×10^-4 to 1.0×10^-11 M in 10% DMSO prepared by dissolving compounds of the invention in DMSO and adding 11 μL of the DMSO solution to 100 μL of culture medium for a final DMSO concentration of 10%). Two of the following controls were also present in each microtitre plate: a solvent (DMSO) control without drug that yielded a 0% inhibition level and a trichloroacetic acid-treated well that yielded a 100% inhibition level. The cells were grown in culture (37° C., 5% CO2 atmosphere) for 48 hours then fixed by the addition of trichloroacetic acid. The wells were stained with sulforhodamine, washed with 1% acetic acid, and treated with 0.01 M tris buffer (100 μL) to solubilize the adherent dye. The absorbance of the dye solution was measured with a Molecular Devices SpectraMax340 plate reader. Percent inhibition and Inhibitory Concentrations (IC50) values were obtained by calculating the proportional response of the experimental values to the absorbance values of the controls.

NCI-H460 cells = assay: 48-hour cellular proliferation assay, sulforhodamine stain (human lung large cell carcinoma, MDR negative); type: cell-based; settings: Homo sapiens, NCI-H460 cells
Protocol: as §1

| IC50 (HCT-15 cells; values given in μM) [µM] | IC50 (NCI-H460 cells; values given in μM) [µM] | IC50 (HCT-15 cells; values in nM) [µM] | IC50 (NCI-H460 cells; values in nM) [µM] | Structure (SMILES) |
| --- | --- | --- | --- | --- |
| 12 | 6 |  |  | COc1cc(C2CN=C(c3ccc4c(ccn4C(=S)SC)c3)O2)cc(OC)c1OC (centres unmarked) [Example 56, 2-(1-methlthiothiocarbonylindol-5-yl)-5-(3,4,5-trimethoxyphenyl)-Δ2,3-oxazoline] |
|  |  | 0.28 | 0.41 | COc1cc(C2CN=C(c3cc4ccn(C)c4cc3Cl)O2)cc(OC)c1OC (centres unmarked) [Example 60, 2-(6-Chloro-1-methylindol-5-yl)-5-(3,4,5-trimethoxyphenyl)-Δ2,3-oxazoline] |
|  |  | 0.0019 | 0.0018 | COc1cc(C2CN=C(c3ccc4c(ccn4C(F)F)c3)O2)cc(OC)c1OC (centres unmarked) [Example 61, 2-(1-difluoromethylindol-5-yl)-5-(3,4,5-trimethoxyphenyl)-Δ2,3-oxazoline] |
|  |  | 0.023 | 0.037 | COc1cc(C2CN=C(c3ccc4c(c3)c(Cl)cn4C)O2)cc(OC)c1OC (centres unmarked) [Example 62, 2-(3-chloro-1-methylindol-5-yl)-5-(3,4,5-trimethoxyphenyl)-Δ2,3-oxazoline] |
|  |  | 0.02 | 0.043 | COc1cc(C2CN=C(c3cc(F)c4[nH]ccc4c3)O2)cc(OC)c1OC (centres unmarked) [Example 63, 2-(7-fluoro-5-indolyl)-5-(3,4,5-trimethoxyphenyl)-Δ2,3-oxazoline] |
|  |  | 0.00396 | 0.0029 | COc1cc(C2CN=C(c3cc(F)c4c(ccn4C)c3)O2)cc(OC)c1OC (centres unmarked) [Example 64, 2-(1-methyl-7-fluoro-5-indolyl)-5-(3,4,5-trimethoxyphenyl)-Δ2,3-oxazoline] |
|  |  | 0.037 | 0.051 | COc1cc(C2CN=C(c3cc(Cl)c4[nH]ccc4c3)O2)cc(OC)c1OC (centres unmarked) [Example 65, 2-(7-chloro-5-indolyl)-5-(3,4,5-trimethoxyphenyl)-Δ2,3-oxazoline] |
|  |  | 0.046 | 0.1 | COc1cc(C2CN=C(c3cc(Cl)c4c(ccn4C)c3)O2)cc(OC)c1OC (centres unmarked) [Example 66, 2-(1-methyl-7-chloro-5-indolyl)-5-(3,4,5-trimethoxyphenyl)-Δ2,3-oxazoline] |
|  |  | 0.023 | 0.038 | COc1cc(C2CN=C(c3ccc4[nH]cc(F)c4c3)O2)cc(OC)c1OC (centres unmarked) [Example 67, 2-(3-fluoro-5-indolyl)-5-(3,4,5-trimethoxyphenyl)-Δ2,3-oxazoline] |
|  |  | 0.047 | 0.15 | COc1cc(C2CN=C(c3ccc4c(c3)c(F)cn4C)O2)cc(OC)c1OC (centres unmarked) [Example 68] |
|  |  | 0.45 | 0.68 | COc1cc(C2CN=C(c3ccc4c(ccn4CO)c3)O2)cc(OC)c1OC (centres unmarked) [Example 69, 2-(1-hydroxymethylindol-5-yl)-5-(3,4,5-trimethoxyphenyl)-Δ2,3-oxazoline] |
|  |  | 0.17 | 0.21 | COCn1ccc2cc(C3=NCC(c4cc(OC)c(OC)c(OC)c4)O3)ccc21 (centres unmarked) [Example 70, 2-(1-methoxymethyl-5-indolyl)-5-(3,4,5-trimethoxyphenyl)-Δ2,3-oxazoline] |
|  |  | 0.005 | 0.017 | COc1cc(C2CN=C(c3ccc4c(c3)cc(C)n4C)O2)cc(OC)c1OC (centres unmarked) [Example 71] |
|  |  | 0.011 | 0.036 | COc1cc(C2CN=C(c3cc(C)c4[nH]ccc4c3)O2)cc(OC)c1OC (centres unmarked) [Example 72, 2-(7-methyl-5-indolyl)-5-(3,4,5-trimethoxyphenyl)-Δ2,3-oxazoline] |
|  |  | 0.034 | 0.041 | COc1cc(C2CN=C(c3cc(C)c4c(ccn4C)c3)O2)cc(OC)c1OC (centres unmarked) [Example 73, 2-(1,7-dimethyl-5-indolyl)-5-(3,4,5-trimethoxyphenyl)-Δ2,3-oxazoline] |
| 1.3 | 1.2 |  |  | COc1cc(C2CN=C(c3cc(C)c4c(c3)cc(C)n4C)O2)cc(OC)c1OC (centres unmarked) [Example 74, 2-(1,2,7-trimethylindol-5-yl)-5-(3,4,5-trimethoxyphenyl)-Δ2,3-oxazoline] |
| 1.9 | 3.8 |  |  | COc1cc(C2CN=C(c3ccc4c(c3)nc(C)n4C)O2)cc(OC)c1OC (centres unmarked) [Example 75, 2-(1,2-dimethylbenzimidazol-5-yl)-5-(3,4,5-trimethoxyphenyl)-Δ2,3-oxazoline] |
| 3.8 | 4.2 |  |  | COc1cc(C2CN=C(c3ccc4c(c3)c(C(=O)C(F)(F)F)cn4C)O2)cc(OC)c1OC (centres unmarked) [Example 77, 2-(1-methyl-3-trifluoroacetylindol-5-yl)-5-(3,4,5-trimethoxyphenyl)-Δ2,3-oxazoline] |
| 1.9 | 3.5 |  |  | COc1cc(C2CN=C(c3ccc4c(ccn4CC(F)(F)F)c3)O2)cc(OC)c1OC (centres unmarked) [Example 78, 2-(1-(2,2,2-trifluoroethyl)indol-5-yl)-5-(3,4,5-trimethoxyphenyl)-Δ2,3-oxazoline] |
